According to ChEMBL document CHEMBL1151757, “Synthesis, radiosynthesis, and biological evaluation of fluorine-18-labeled 2beta-carbo(fluoroalkoxy)-3beta-(3'-((Z)-2-haloethenyl)phenyl)nortropanes: candidate radioligands for in vivo imaging of the serotonin transporter with positron emission tomography” (J Med Chem, 2008):

Legend:
[1] = system: Caudate; assay: Drug uptake in anesthetized cynomolgus monkey brain caudate after 125 mins postinjection; type: ADME, organism-based, Macaca fascicularis, Caudate nucleus; conditions: in vivo
[2] = Drug uptake in anesthetized cynomolgus monkey brain frontal lobe after 125 mins postinjection; type: ADME, organism-based, Macaca fascicularis; conditions: in vivo
[3] = Ratio of drug uptake in caudate to cerebellum in anesthetized cynomolgus monkey after 65 mins postinjection; type: ADME, organism-based, Macaca fascicularis; conditions: in vivo
[4] = system: Pons; assay: Drug uptake in anesthetized cynomolgus monkey brain pons after 3.5 mins postinjection; type: ADME, organism-based, Macaca fascicularis; conditions: in vivo
[5] = Drug uptake in anesthetized cynomolgus monkey brain cerebellum after 205 mins postinjection; type: ADME, organism-based, Macaca fascicularis; conditions: in vivo
[6] = system: Medulla; assay: Drug uptake in anesthetized cynomolgus monkey brain medulla after 4.5 mins postinjection; type: ADME, organism-based, Macaca fascicularis; conditions: in vivo, 0.075 h
[7] = system: Medulla; assay: Drug uptake in anesthetized cynomolgus monkey brain medulla after 55 mins postinjection; type: ADME, organism-based, Macaca fascicularis; conditions: in vivo
[8] = system: Caudate; assay: Drug uptake in anesthetized cynomolgus monkey brain caudate after 205 mins postinjection; type: ADME, organism-based, Macaca fascicularis, Caudate nucleus; conditions: in vivo
[9] = system: Caudate; assay: Drug uptake in anesthetized cynomolgus monkey brain caudate after 225 mins postinjection; type: ADME, organism-based, Macaca fascicularis, Caudate nucleus; conditions: in vivo, 3.75 h
[10] = Drug uptake in anesthetized cynomolgus monkey brain occipital lobe after 2.5 mins postinjection; type: ADME, organism-based, Macaca fascicularis; conditions: in vivo
[11] = system: Thalamus; assay: Drug uptake in anesthetized cynomolgus monkey brain thalamus after 9.5 mins postinjection; type: ADME, organism-based, Macaca fascicularis; parameters: unit not given here; conditions: in vivo
[12] = Ratio of drug uptake in medulla to cerebellum in anesthetized cynomolgus monkey after 35 mins postinjection; type: ADME, organism-based, Macaca fascicularis; conditions: in vivo
[13] = system: Caudate; assay: Drug uptake in anesthetized cynomolgus monkey brain caudate after 22.5 mins postinjection; type: ADME, organism-based, Macaca fascicularis, Caudate nucleus; conditions: in vivo, 0.375 h
[14] = Ratio of drug uptake in midbrain to cerebellum in anesthetized cynomolgus monkey after 135 mins postinjection; type: ADME, organism-based, Macaca fascicularis; conditions: in vivo, 2.25 h
[15] = system: Caudate; assay: Drug uptake in anesthetized cynomolgus monkey brain caudate after 55 mins postinjection; type: ADME, organism-based, Macaca fascicularis, Caudate nucleus; conditions: in vivo
[16] = Drug uptake in anesthetized cynomolgus monkey brain occipital lobe after 175 mins postinjection; type: ADME, organism-based, Macaca fascicularis; conditions: in vivo
[17] = Drug uptake in anesthetized cynomolgus monkey brain occipital lobe after 55 mins postinjection; type: ADME, organism-based, Macaca fascicularis; conditions: in vivo
[18] = system: Pons; assay: Drug uptake in anesthetized cynomolgus monkey brain pons after 0.5 mins postinjection; type: ADME, organism-based, Macaca fascicularis; conditions: in vivo
[19] = Drug uptake in anesthetized cynomolgus monkey brain frontal lobe after 195 mins postinjection; type: ADME, organism-based, Macaca fascicularis; conditions: in vivo, 3.25 h
[20] = Drug uptake in anesthetized cynomolgus monkey brain frontal lobe after 2.5 mins postinjection; type: ADME, organism-based, Macaca fascicularis; conditions: in vivo
[21] = system: Pons; assay: Drug uptake in anesthetized cynomolgus monkey brain pons after 185 mins postinjection; type: ADME, organism-based, Macaca fascicularis; conditions: in vivo
[22] = Drug uptake in anesthetized cynomolgus monkey brain cerebellum after 135 mins postinjection; type: ADME, organism-based, Macaca fascicularis; conditions: in vivo, 2.25 h
[23] = system: Caudate; assay: Drug uptake in anesthetized cynomolgus monkey brain caudate after 27.5 mins postinjection; type: ADME, organism-based, Macaca fascicularis, Caudate nucleus; conditions: in vivo
[24] = system: Midbrain; assay: Drug uptake in anesthetized cynomolgus monkey brain midbrain after 4.5 mins postinjection; type: ADME, organism-based, Macaca fascicularis; parameters: unit not given here; conditions: in vivo, 0.075 h
[25] = Octanol-water partition coefficient, log P at pH 7.4 by shake-flask method; type: physicochemical
[26] = Ratio of drug uptake in pons to cerebellum in anesthetized cynomolgus monkey after 85 mins postinjection; type: ADME, organism-based, Macaca fascicularis; conditions: in vivo
[27] = Ratio of drug uptake in midbrain to cerebellum in anesthetized cynomolgus monkey after 235 mins postinjection; type: ADME, organism-based, Macaca fascicularis; conditions: in vivo
[28] = system: Midbrain; assay: Drug uptake in anesthetized cynomolgus monkey brain midbrain after 12.5 mins postinjection; type: ADME, organism-based, Macaca fascicularis; parameters: unit not given here; conditions: in vivo
[29] = Drug uptake in anesthetized cynomolgus monkey brain frontal lobe after 45 mins postinjection; type: ADME, organism-based, Macaca fascicularis; conditions: in vivo, 0.75 h
[30] = system: Midbrain; assay: Drug uptake in anesthetized cynomolgus monkey brain midbrain after 85 mins postinjection; type: ADME, organism-based, Macaca fascicularis; parameters: unit not given here; conditions: in vivo
[31] = system: Caudate; assay: Drug uptake in anesthetized cynomolgus monkey brain caudate after 1.5 mins postinjection; type: ADME, organism-based, Macaca fascicularis, Caudate nucleus; conditions: in vivo, 0.025 h
[32] = Drug uptake in anesthetized cynomolgus monkey brain cerebellum after 1.5 mins postinjection; type: ADME, organism-based, Macaca fascicularis; conditions: in vivo, 0.025 h
[33] = system: Medulla; assay: Drug uptake in anesthetized cynomolgus monkey brain medulla after 175 mins postinjection; type: ADME, organism-based, Macaca fascicularis; conditions: in vivo
[34] = system: Thalamus; assay: Drug uptake in anesthetized cynomolgus monkey brain thalamus after 27.5 mins postinjection; type: ADME, organism-based, Macaca fascicularis; parameters: unit not given here; conditions: in vivo
[35] = system: Putamen; assay: Drug uptake in anesthetized cynomolgus monkey brain putamen after 195 mins postinjection; type: ADME, organism-based, Macaca fascicularis; conditions: in vivo, 3.25 h
[36] = Ratio of drug uptake in medulla to cerebellum in anesthetized cynomolgus monkey after 65 mins postinjection; type: ADME, organism-based, Macaca fascicularis; conditions: in vivo
[37] = Drug uptake in anesthetized cynomolgus monkey brain frontal lobe after 4.5 mins postinjection; type: ADME, organism-based, Macaca fascicularis; conditions: in vivo, 0.075 h
[38] = system: Pons; assay: Drug uptake in anesthetized cynomolgus monkey brain pons after 155 mins postinjection; type: ADME, organism-based, Macaca fascicularis; conditions: in vivo
[39] = Ratio of drug uptake in pons to cerebellum in anesthetized cynomolgus monkey after 35 mins postinjection; type: ADME, organism-based, Macaca fascicularis; conditions: in vivo
[40] = Drug uptake in anesthetized cynomolgus monkey brain cerebellum after 155 mins postinjection; type: ADME, organism-based, Macaca fascicularis; conditions: in vivo
[41] = Ratio of drug uptake in occipital lobe to cerebellum in anesthetized cynomolgus monkey after 115 mins postinjection; type: ADME, organism-based, Macaca fascicularis; conditions: in vivo
[42] = system: Medulla; assay: Drug uptake in anesthetized cynomolgus monkey brain medulla after 12.5 mins postinjection; type: ADME, organism-based, Macaca fascicularis; conditions: in vivo
[43] = system: Pons; assay: Drug uptake in anesthetized cynomolgus monkey brain pons after 55 mins postinjection; type: ADME, organism-based, Macaca fascicularis; conditions: in vivo
[44] = Drug uptake in anesthetized cynomolgus monkey brain frontal lobe after 1.5 mins postinjection; type: ADME, organism-based, Macaca fascicularis; conditions: in vivo, 0.025 h
[45] = system: Caudate; assay: Drug uptake in anesthetized cynomolgus monkey brain caudate after 65 mins postinjection; type: ADME, organism-based, Macaca fascicularis, Caudate nucleus; conditions: in vivo
[46] = Drug uptake in anesthetized cynomolgus monkey brain frontal lobe after 85 mins postinjection; type: ADME, organism-based, Macaca fascicularis; conditions: in vivo
[47] = system: Pons; assay: Drug uptake in anesthetized cynomolgus monkey brain pons after 22.5 mins postinjection; type: ADME, organism-based, Macaca fascicularis; conditions: in vivo, 0.375 h
[48] = system: Medulla; assay: Drug uptake in anesthetized cynomolgus monkey brain medulla after 35 mins postinjection; type: ADME, organism-based, Macaca fascicularis; conditions: in vivo
[49] = system: Midbrain; assay: Drug uptake in anesthetized cynomolgus monkey brain midbrain after 225 mins postinjection; type: ADME, organism-based, Macaca fascicularis; conditions: in vivo, 3.75 h
[50] = system: Putamen; assay: Drug uptake in anesthetized cynomolgus monkey brain putamen after 2.5 mins postinjection; type: ADME, organism-based, Macaca fascicularis; conditions: in vivo
[51] = Ratio of drug uptake in pons to cerebellum in anesthetized cynomolgus monkey after 1.5 mins postinjection; type: ADME, organism-based, Macaca fascicularis; conditions: in vivo, 0.025 h
[52] = Drug uptake in anesthetized cynomolgus monkey brain occipital lobe after 3.5 mins postinjection; type: ADME, organism-based, Macaca fascicularis; conditions: in vivo
[53] = Ratio of drug uptake in medulla to cerebellum in anesthetized cynomolgus monkey after 135 mins postinjection; type: ADME, organism-based, Macaca fascicularis; conditions: in vivo, 2.25 h
[54] = Ratio of drug uptake in thalamus to cerebellum in anesthetized cynomolgus monkey after 115 mins postinjection; type: ADME, organism-based, Macaca fascicularis; conditions: in vivo
[55] = Drug uptake in anesthetized cynomolgus monkey brain frontal lobe after 225 mins postinjection; type: ADME, organism-based, Macaca fascicularis; conditions: in vivo, 3.75 h
[56] = system: Thalamus; assay: Drug uptake in anesthetized cynomolgus monkey brain thalamus after 115 mins postinjection; type: ADME, organism-based, Macaca fascicularis; parameters: unit not given here; conditions: in vivo
[57] = Ratio of drug uptake in caudate to cerebellum in anesthetized cynomolgus monkey after 95 mins postinjection; type: ADME, organism-based, Macaca fascicularis; conditions: in vivo
[58] = Drug uptake in anesthetized cynomolgus monkey brain occipital lobe after 75 mins postinjection; type: ADME, organism-based, Macaca fascicularis; conditions: in vivo, 1.25 h
[59] = Drug uptake in anesthetized cynomolgus monkey brain frontal lobe after 27.5 mins postinjection; type: ADME, organism-based, Macaca fascicularis; conditions: in vivo
[60] = Drug uptake in anesthetized cynomolgus monkey brain cerebellum after 12.5 mins postinjection; type: ADME, organism-based, Macaca fascicularis; conditions: in vivo
[61] = system: Caudate; assay: Drug uptake in anesthetized cynomolgus monkey brain caudate after 4.5 mins postinjection; type: ADME, organism-based, Macaca fascicularis, Caudate nucleus; conditions: in vivo, 0.075 h
[62] = system: Pons; assay: Drug uptake in anesthetized cynomolgus monkey brain pons after 225 mins postinjection; type: ADME, organism-based, Macaca fascicularis; conditions: in vivo, 3.75 h
[63] = system: Thalamus; assay: Drug uptake in anesthetized cynomolgus monkey brain thalamus after 85 mins postinjection; type: ADME, organism-based, Macaca fascicularis; parameters: unit not given here; conditions: in vivo
[64] = system: Thalamus; assay: Drug uptake in anesthetized cynomolgus monkey brain thalamus after 185 mins postinjection; type: ADME, organism-based, Macaca fascicularis; conditions: in vivo
[65] = system: Medulla; assay: Drug uptake in anesthetized cynomolgus monkey brain medulla after 15.5 mins postinjection; type: ADME, organism-based, Macaca fascicularis; conditions: in vivo
[66] = Drug uptake in anesthetized cynomolgus monkey brain cerebellum after 175 mins postinjection; type: ADME, organism-based, Macaca fascicularis; conditions: in vivo
[67] = system: Putamen; assay: Drug uptake in anesthetized cynomolgus monkey brain putamen after 175 mins postinjection; type: ADME, organism-based, Macaca fascicularis; conditions: in vivo
[68] = system: Medulla; assay: Drug uptake in anesthetized cynomolgus monkey brain medulla after 145 mins postinjection; type: ADME, organism-based, Macaca fascicularis; conditions: in vivo
[69] = system: Caudate; assay: Drug uptake in anesthetized cynomolgus monkey brain caudate after 9.5 mins postinjection; type: ADME, organism-based, Macaca fascicularis, Caudate nucleus; conditions: in vivo

With `O=C(OCCC[18F])C1C2CCC(CC1c1cccc(/C=C\I)c1)N2` (centres undefined) the Drug uptake [1] was 3.51, the Drug uptake [2] was 2.54 and the Ratio [3] was 1. It also gave a Drug uptake [4] of 1.71, a Drug uptake [5] of 1.91 and a Drug uptake [6] of 2.58. It also gave a Drug uptake [7] of 5.06, a Drug uptake [8] of 2.65 and a Drug uptake [9] of 2.46. For the same compound, the Drug uptake [10] was 0.62, the Drug uptake [11] was 3.45 and the Ratio [12] was 1.1. The Drug uptake [13] was 3.53, the Ratio [14] was 1.7 and the Drug uptake [15] was 4.09. For the same compound, the Drug uptake [16] was 2.55, the Drug uptake [17] was 4 and the Drug uptake [18] was 0.01. For the same compound, the Drug uptake [19] was 1.96, the Drug uptake [20] was 0.5 and the Drug uptake [21] was 3.31. The Drug uptake [22] was 2.66, the Drug uptake [23] was 3.68 and the Drug uptake [24] was 2.42. The logD [25] was 1.64, the Ratio [26] was 1.1 and the Ratio [27] was 1.9. It also gave a Drug uptake [28] of 4.11, a Drug uptake [29] of 2.84 and a Drug uptake [30] of 4.92. It also gave a Drug uptake [31] of 0.16, a Drug uptake [32] of 0.27 and a Drug uptake [33] of 4.08. For the same compound, the Drug uptake [34] was 4.66, the Drug uptake [35] was 3.39 and the Ratio [36] was 1.2. It also gave a Drug uptake [37] of 1.31, a Drug uptake [38] of 3.52 and a Ratio [39] of 0.9. It also gave a Drug uptake [40] of 2.32, a Ratio [41] of 1 and a Drug uptake [42] of 4.73. For the same compound, the Drug uptake [43] was 4.4, the Drug uptake [44] was 0.16 and the Drug uptake [45] was 3.99. It also gave a Drug uptake [46] of 2.71, a Drug uptake [47] of 4.1 and a Drug uptake [48] of 5.04. The Drug uptake [49] was 3.76, the Drug uptake [50] was 0.84 and the Ratio [51] was 0.8. For the same compound, the Drug uptake [52] was 1.29, the Ratio [53] was 1.7 and the Ratio [54] was 1.4. It also gave a Drug uptake [55] of 1.82, a Drug uptake [56] of 4.24 and a Ratio [57] of 1.1. It also gave a Drug uptake [58] of 3.68, a Drug uptake [59] of 2.72 and a Drug uptake [60] of 4.52. For the same compound, the Drug uptake [61] was 1.55, the Drug uptake [62] was 3.11 and the Drug uptake [63] was 4.59. It also gave a Drug uptake [64] of 3.29, a Drug uptake [65] of 4.36 and a Drug uptake [66] of 2.37. For the same compound, the Drug uptake [67] was 3.61, the Drug uptake [68] was 4.24 and the Drug uptake [69] was 2.7.
